This note sets out measurements from patent US20210386792A1, “A METHOD FOR INCREASING POPULATION OF SPERMATOGONIAL STEM CELLS” (priority 2018, published 2021).

This assay has as its system TECs. Briefly: GDNF ELISA in conditioned media from TECs. Format: cell-based, mouse. To be noted: for GDNF production in conditioned media of TECs after FGF-2 treatment: wild-type mouse TECs. On the procedure:
Testis, lung, or liver ECs were plated (10,000 cells ml^−1) on 12 well dishes coated with 0.1% gelatin and cultured for 24 hours. Conditioned media was harvested at 24 and 48 hours after FGF-2 (2 ng ml^−1, 20 ng ml^−1 and 50 ng ml^−1) treatment and analyzed by ELISA for GDNF (Promega GDNF Emax immunoassay system, #G7621) following the manufacturer's instruction. Statistics was analyzed using Graph Pad Prism. For quantification of Gdnf mRNA, total RNA was isolated from the cells using Direct-zol RNA MiniPrep (Zymo Research) and reverse transcribed using High Capacity cDNA Reverse Transcription Kit (Appliedbiosystems), according to the manufacturer's instructions. All gene expression levels were normalized to GAPDH mRNA levels.
FIG. 2. a. Quantication of GDNF by ELISA in conditioned media from TECs, LuECs and LiECs after treatment with the indicated concentration of FGF-2 for 2 days, n=3. Bar=100 μm. Data are presented as the mean±s.e.m. b. Representative brighteld (BF) and GFP images of 2D cultures of GFP+ SSCs co-cultured with STO cells or TECs plus exogenous GDNF and FGF-2 on days 1 and 8 after seeding. Quantication of stem cell numbers 8 days after co-culture with STO or TECs and the average colony area are shown on the right, n=3. Data are presented as the mean±s.e.m. Bar=100 μm. *P<0.05. c. Images of 2D co-cultures of GFP+Thy1.2+ SSCs with TECs and immunostained with the germ cell marker DDX4. Inset: bar=10 μm. d. The 3D spheroid co-cultures of GFP+Thy-1.2+ SSCs with TECs or LuECs were generated with Matrigel but no exogenous GDNF or FGF-2. GFP+ Spheroid co-cultures were immunostained with DDX4 (red), Oct4 (white) and DAPI (blue) at day 15. Quantication of the average diameter and total number of colonies is shown on the right; n=3. All data are presented as the mean±s.e.m. Bar=50 m, *P<0.05. **P<0.01. e. Representative BF images merged with GFP images of serially passaged GFP+Thy-1.2+ SSCs co-cultured with TECs at the indicated passage number (1st, 2nd, 3rd or 4th) or day (D). […]
(In general: An ELISA detects its analyte on a solid surface through an enzyme-linked reagent.)

fibroblast growth factor-2 [FGF-2]: the “GDNF production in conditioned media of TECs after FGF-2 treatment” value is recorded as “induced significant levels of GDNF”. Also, where the note is “Fgfr1−/− TECs compared to Fgfr1+/+ wild-type TECs”, the “GDNF expression in media of Fgfr1−/− TECs after FGF2 treatment” value is “no increase in GDNF expression”. Under “listed as FGF2”, the “GDNF production in conditioned media of TECs after FGF-2 treatment” value is “stimulated significant GDNF production”.
